Results: patent publication US20050276855A1, “Composition and method using local application of lipophilic lathyrogens sustained release formulations” (priority 2004, published 2005)
“Also recorded” adds a separate entry of the source.

Key:
[1] = tested on: esophageal stricture; conditions: young adult rabbits; cited from earlier work
[2] = tested on: sclera puncture wound; conditions: locally injected; cited from earlier work
[3] = tested on: incision skin wound in rats; assay: Breaking strength of incision skin wound in rats after a single local injection; type: in vivo; conditions: for Breaking strength / Change in % of control / Effect on breaking strength versus non-treated controls: Example II; for Breaking strength: 12 days after wounding, single injection underneath wound line, DPA 5 mg/0.25 ml, hexyl ester 7.5 mg/0.25 ml, Mean +/− SD; for Change in % of control: breaking strength 12 days after wounding; for Effect on breaking strength versus non-treated controls: in saline; for Effect on breaking strength versus non-treated controls / Breaking strength of skin wound, X: 12 days; for Effect on breaking strength of the healing wound: Example III, in polyethylene glycol 600; for Breaking strength of skin wound, X: Example IV, in thermosensitive polymer (TSP), Sprague-Dawley female rats
Description: Young adult rats have the hair clipped in the dorsum midline to make a rectangle having the dimensions of about 4 cm by about 9 cm. A full thickness skin incision in the midline of the dorsum of the rat is made about 8 cm long. The wound is closed with 9 to 10 interrupted sutures.
Various treatments are injected in between the sutures, underneath the closed wounds with a 8 cm long gastric needle, inserted at the distal site of the incision wound. After 12 days the animals are terminated, the skin wound is dissected with 2 cm intact skin at both sides. A specially designed multiple razor blade cutter with blades 0.5 cm apart is placed onto the skin, stretched loosely onto a cork lined board and hammered to obtain several (10 to 12) equal width skin strips, having the wound in the middle. Individual skin strips are attached to grips of a tensiometer and breaking strength is determined.
In this Example II, Applicants utilized the above-recited test method to evaluate local administration of unmodified lathyrogens and/or chemically modified lathyrogens, administered in a polymeric carrier.
In certain embodiments, the polymeric carrier comprised a mixture of polylactic and polyglycolic acid of defined molecular weights and proportion, dissolved in N-methylpyrolidone. This polymer was obtained from Atrix Company (CO) as Atrigel 30 which was supposed to be degraded in the tissues within 30 days. […] The rate of its degradation—hydrolysis, determines the rate of the release of the lathyrogen dispersed therein.
The tested lathyrogens, Compound I or derivative thereof, namely D-penicillamine-hexyl ester HCl, i.e. Compound III, wherein R1 is hexyl, was used at the dose of 5 mg/0.25 ml of polymeric carrier (for DPA), or 7.5 mg of Compound III/0.25 ml of polymeric carrier. The formulation was injected after closing the skin wound between the sutures, underneath the wound line. Saline solutions of BAPN and DPA were also administered at the same dose and volume.
Four rats were used in each group. The data recited in Table II are presented as Mean +/− Standard Deviation, based on 20 to 28 determinations in every group. The testing of the breaking strength of the skin wound strips was done 12 days after inflecting the wound. […]

[4] = tested on: Schiff base crosslinks of the collagen; assay: Swelling of skin samples in various solutions (collagen crosslink cleavage); design: species or system nude mice; conditions: for Cleavage of crosslinks once reduced: crosslinks reduced with sodium borohydrate; for Cleavage of non reduced Schiff base crosslinks of collagen: non reduced skin discs
Excerpt: This example documents one of the effects of DPA on the integrity of collagen structure. […] Once the crosslink is reduced (with sodium borohydrate) a stable covalent crosslinks is formed, resistant to any chemical means to break it. The Example also documents that only substances having —SH and —NH2 groups free are effective. Therefore N acetyl cystein is not effective due to the blocking its —NH2 group.
Method: Skin of 4 months old nude mice was dissected, spread on a board and with a 0.5 cm diameter punch several discs were obtained. These were kept in a moist chamber to prevent drying. The discs were weighted and immersed in the following solutions for 1 hour incubation: • 1. Phosphate buffered saline (0.1 M, pH 7.3)-control; • 2. PBS with 10 mg sodium borohydrate in 10 ml; • 3. Some discs from group 1 and 2 were further incubated for 1 hour PBS containing 100 mg cystein, or D-penicillamine or N-acetyl cystein; • 4. After 1 hour incubation in the above solutions, the skin samples were placed into 0.45% acetic acid (pH 3.5) for another hour.
After each incubation time the skins samples were blotted on a filter paper and weighted on a analytical balance with the sensitivity to 0.1 mg.
Swelling in Table 1 is given as mg weight/0.5 cm disc of skin. The data are shown as Mean +/− standard deviation (“SD”).
In this Example the swelling capacity was used as an indicator of the structural stability, namely number of crosslinks in the collagen molecules. More crosslinked collagen swells less than when the bonds are cleaved, resuming the structure of “young” collagen.

[5] = tested on: function of filter surgery; conditions: systemic administration; cited from earlier work
[6] = tested on: lacerated tendons; conditions: systemic administration; cited from earlier work
[7] = tested on: scar contracture of intracardiac prosthetic patches; conditions: systemic; cited from earlier work
[8] = tested on: esophageal stricture; conditions: given systemically, without bougienage; cited from earlier work
[9] = tested on: peritendinous adhesions; conditions: 1-2-g/day per os, cited from earlier work
[10] = tested on: intraoccular pressure; conditions: topical, cited from earlier work
[11] = 0.5 cm skin discs, 1 hour PBS, 1 hour PBS containing 100 mg substance, then 1 hour 0.45% acetic acid (pH 3.5)

Q: Which results are given for CC(C)(S)C(N)C(=O)O (stereo in doubt) [DPA, D-Penicillamine]?
A: Severity of esophageal stricture [1]: less severe stricture; Collagen deposition in adjacent muscle [2]: decreased; Wound contraction after puncturing the sclera [2]: inhibited wound contraction; Breaking strength [3]: 695 +/− 38 g/0.5 cm; Change in % of control [3]: −2%; Effect on breaking strength versus non-treated controls [3]: no differences in the breaking strength; Swelling of skin samples, Mean [4, 11]: 84.0 mg weight/0.5 cm disc of skin; Cleavage of crosslinks once reduced [4]: no effective; Cleavage of non reduced Schiff base crosslinks of collagen [4]: cleaves the non reduced covalent Schiff base crosslinks; also recorded: effectively cleaving; Effect on the function of filter surgery [5]: not effective

Q: Which “Effect on breaking strength of the healing wound” value [3] does the source give for CCCCCCNCCC#N [BAPN - lipophilic, hexyl-beta-aminopropionitrile] here?
A: Its value is “effectiveness”.

Q: And the “Breaking strength of skin wound, X” value [3]?
A: Its value is 226.

Q: Which “Gliding function of lacerated tendons” value [6] does the source give for N#CCCN [BAPN, Beta-aminopropionitrile] here?
A: The value was “significant improvement in the gliding function”.

Q: What about the “Scar contracture” value [7] of the same compound?
A: Its value is “inhibition of scar contracture”.

Q: What about the “Stricture of the esophageal lumen” value [8] of the same compound?
A: The value was “preventing the stricture of the lumen”.

Q: What about the “Effect in patients after tenolysis” value [9] of the same compound?
A: Its value is “beneficial effect”.

Q: What about the “Side toxic effects” value ([9]; study discontinued) of the same compound?
A: Its value is “several side toxic effects”.

Q: What about the Breaking strength [3] of the same compound?
A: Its Breaking strength is 735 +/− 40 g/0.5 cm.

Q: And the “Change in % of control” value [3]?
A: The value was “+14%”.

Q: And the “Effect on breaking strength versus non-treated controls” value [3]?
A: The value was “no differences in the breaking strength”.

Q: What does the source list for N#CCCN.N#CCCN.O=C(O)/C=C/C(=O)O [BAPN-F]?
A: Time postoperative pressure was maintained ([10]; after filtration surgery): 26.4+−11 weeks; Overall success rate ([10]; difficult cases of glaucoma): 74%; Postoperative intraoccular pressure ([10]; preoperative pressure 40 mm Hg): 19 mm Hg; Collagen deposition in adjacent muscle [2]: decreased; Wound contraction after puncturing the sclera [2]: inhibited wound contraction

Q: What does the source list for N[C@@H](CS)C(=O)O [CYSH, cystein]?
A: Swelling of skin samples, Mean [4, 11]: 84.0 mg weight/0.5 cm disc of skin; Cleavage of crosslinks once reduced [4]: no effective; Cleavage of non reduced Schiff base crosslinks of collagen [4]: effectively cleaving

Q: With CCCCCCOC(=O)[C@H](N)C(C)(C)S.Cl [DPA - lipophilic, D-penicillamine-hexyl ester HCl] as the compound, how does the “Breaking strength of skin wound, X” value [3] read?
A: Its value is 321.

Q: For CC(=O)N[C@@H](CS)C(=O)O [N-acetylCYSH, N-acetyl cystein], which “Swelling of skin samples, Mean” value [4, 11] is on record?
A: Its value is 32.2 mg weight/0.5 cm disc of skin.

Q: What about the “Cleavage of non reduced Schiff base crosslinks of collagen” value [4] of the same compound?
A: Its value is “not effective”.

Q: With [BH4-].[Na+] [SBH + control, sodium borohydrate] as the compound, how does the “Swelling of skin samples, Mean” value ([4]; discs first incubated 1 hour in PBS with 10 mg sodium borohydrate in 10 ml (crosslinks reduced), then substance, then 0.45% acetic acid (pH 3.5)) read?
A: Its value is 27.5 mg weight/0.5 cm disc of skin.

Q: With COc1cc2c(c(OC)c1OC)-c1ccc(OC)c(=O)cc1[C@@H](NC(C)=O)CC2 [colchicine] as the compound, how does the “Severity of esophageal stricture” value [1] read?
A: Its value is “severe stricture”.

Q: What about the “Wound healing” value [1] of the same compound?
A: The value was “delayed wound healing”.

Q: For DPA-hexanal acetone adduct, which “Effect on breaking strength of the healing wound” value [3] is on record?
A: The value was “no effect”.
